Legend:
[1] = test system: BT474; assay: Clonogenic assay, proliferation of breast cancer cell line; assay type: cell-based; details: 1 mM antagonist, 2 weeks; for # of colonies/10^3 cells (±SD): methyl cellulose matrix
Procedure: (§1) Clonogenic assays studied the proliferation of breast cancer cell lines. Duplicate cultures were performed with 10^3 cells/ml in 1.2% methylcellulose matrix that contained various concentrations (between about 100 to 0.001 mM) of NK-1, NK-2 or (NK-1+NK-2) antagonists. Baseline cultures contained media alone. For each cell line, the assay contained the appropriate culture media. Cultures were incubated for 2 wk at 37° C. This was followed by enumeration of colonies that contained more than 10 cells. In a highly preferred embodiment, the concentration of antagonist is 1 nM.
(§2) Increased expression of PPT-I and NK-1 in breast cancer cells (Tables 1 and 2) led to the next set of experiments. A functional role for these genes in breast cancer is established by determining whether PPT-I peptides, endogenously produced by breast cancer cells, can induce their proliferation through autocrine and/or paracrine mechanisms. This question was addressed in six different experiments using clonogenic assay. […] NK-1 or NK-2 antagonists blunted breast cancer cell proliferation by approximately […] when compared to cultures with media alone (Table 4). […] There was no significant difference (p>0.5) in cell proliferation when normal mammary epithelial cells (MCF12A and H5578Bst) were cultured with the antagonists. […] Reduced colony formation was not due to necrosis since >99% of the cells were trypan blue negative in suspension cultures, performed for two weeks with antagonists.

[2] = test system: Du4475; assay: as above; assay type: cell-based; details: 1 mM antagonist, 2 weeks; for # of colonies/10^3 cells (±SD): methyl cellulose matrix
Procedure: as §1, §2

[3] = test system: MDAMB-330; assay: as above; assay type: cell-based; details: 1 mM antagonist, 2 weeks; for # of colonies/10^3 cells (±SD): methyl cellulose matrix
Procedure: as §1, §2

[4] = test system: T47D; assay: as above; assay type: cell-based; details: 1 mM antagonist, 2 weeks; for # of colonies/10^3 cells (±SD): methyl cellulose matrix
Procedure: as §1, §2

[5] = test system: ZR7530; assay: as above; assay type: cell-based; details: 1 mM antagonist, 2 weeks; for # of colonies/10^3 cells (±SD): methyl cellulose matrix
Procedure: as §1, §2

[6] = test system: Hs578Bst; assay: Clonogenic assay, nontransformed mammary epithelial cells; assay type: cell-based; details: 1 mM antagonist, 2 weeks; for # of colonies/10^3 cells (±SD): methyl cellulose matrix
Procedure: as §1, §2

[7] = test system: MCF12A; assay: as above; assay type: cell-based; details: 1 mM antagonist, 2 weeks; for # of colonies/10^3 cells (±SD): methyl cellulose matrix
Procedure: as §1, §2

[8] = test system: β-PPT-I mRNA; assay: Quantitative RT-PCR in stimulated bone marrow stroma; assay type: cell-based, human; details: for β-PPT-I (molecules/μg total RNA): 8 ng/ml SCF and/or 10 nM CP-99,994
Procedure: (§3) In a second embodiment of the present invention, bone marrow stroma was stimulated in serum-free α-MEM supplemented with Insulin-transferrin-selenium-A (Life Technologies). Quantitative RT-PCR with total RNA, extracted from bone marrow stroma and construction of standard DNA was performed as described in Singh, D., supra. The end sequences of the standard DNA contained gene-specific sequences that are complementary for the reaction primers. The primers in the standard DNA flank neutral DNA. Total RNA (2 μg) was reverse transcribed and 200 ng cDNA used in PCR with specific oligonucleotide primers for PPT-I, NK-1 or NK-2. Standard DNA, log10 fold dilutions, ranged between 10^−2 to 10^−6 attomole/L. Each unknown sample was assayed with a particular concentration of standard DNA in the same reaction tube. PCR products (10 μl) were separated by electrophoresis on 1.5% agarose containing ethidium bromide and the densities of the DNA bands quantitated with a Fluorimager (Molecular Dynamics, Sunnyvale, Calif.) and then analyzed with ImageQuant software. A standard curve was established for each unknown sample: band densities of unknown/standard DNA vs. Log10 standard DNA concentration was used to determine the concentration of RNA molecules in the unknown samples. The concentration of the unknown sample was selected at the concentration in which the ratio of the unknown and standard were equivalent.
(§4) Transfected bone marrow stroma was stimulated with optimal concentrations of IL-1α (2.5 ng/ml), SCF (8 ng/ml) or 1 nM substance P, SP (Sigma, St Louis, Mo.) and/or 10 nM NK-1-specific antagonist (CP-99,994) in α-MEM with 2% FCS. In other embodiments, bone marrow stroma was stimulated with 5 μg/ml forskolin, FK (Sigma) for 2 and 5 h. SCF was purchased from R&D Systems (Minneapolis, Minn.) and IL-1α was obtained from Hoffman LaRoche, Nutley, N.J. Pfizer, Inc. (Groton, Conn.) provided CP-99,994. Substance P and CP-99,994 were dissolved and stored as described in Ramewshwar et al (1996), supra. Optimal parameters were determined with dose-response and time-course studies.
Confluent bone marrow stroma was stimulated with 25 ng/ml rhIL-1α or 10 ng/ml SCF for 24 h. Poly A RNA was isolated from total RNA by selection (2×) on oligo-dT cellulose (Life Technologies). The cellulose column was washed once with 10 mM Tris, pH 7.0; 0.5 M NaCl; […] and once with 10 mM Tris, pH 7.0; 0.2 M NaCl; […]. Poly A RNA was eluted with 10 mM Tris (pH 7.0) and […]. RNA was precipitated by standard techniques and then resuspended in DEPC-treated water. The purity was verified by the absence of rRNA.

[9] = test system: PPT-I promoter (Upstream/N0); assay: Luciferase reporter gene assay, pGL3-Upstream/N0 in transfected bone marrow stroma; assay type: cell-based, human
Procedure: as §4
pGL3-basic with inserts of different fragments from PPT-I-p1.2 was co-transfected with pβ-gal-Control (0.5 μg each) in 80% confluent bone marrow stroma using SuperFect (Qiagen, Valencia, Calif.). After 48 h cells were scraped in 30 μl 250 mM Tris (pH 8.0) and then lysed by freezing and thawing in a dry ice/ethanol bath. Cell-free lysates (24 μl) were obtained by centrifugation at 15,000 g for 5 min at 4° C. and then diluted with 5× cell culture lysis buffer (Promega). Luciferase and β-gal activities were quantitated with 10 μl of lysates using Luciferase assay system (Promega) and Luminescent β-galactosidase detection kit II (Clontech) respectively. In the experimental model, the ratios of Luciferase/β-gal in cells transfected with vector alone ranged from 0.18 to 0.19 and was normalized to 1. Because cytokines induce the promoter upstream of β-gal, in cytokine-stimulated cells, luciferase activity was presented/mg of total protein the levels normalized with stroma transfected with vector alone. Total protein was determined using standard techniquees well known in the art.
Mutations were performed with a mutagenesis kit (Stratagene, La Jolla, Calif.). The desired mutant sequences (Table 1) were synthesized within 40 nt in the forward and reverse directions and then used in PCR with pGL3 containing wild type Upstream/N0. After PCR amplification, mutation was verified by identification of Apa L1 within CRE-like mutant and the loss of Xho 1 in CRE mutant.

[10] = test system: NK-1 mRNA; assay: Quantitative RT-PCR in stimulated bone marrow stroma; assay type: cell-based, human; details: BM stroma; 8 ng/ml SCF or 2.5 ng/ml IL-1a; 16 h; serum-free α-MEM
Procedure: as §3, §4

[11] = test system: NK-2 mRNA; assay: as above; assay type: cell-based, human; details: BM stroma; 8 ng/ml SCF or 2.5 ng/ml IL-1a; 16 h; serum-free α-MEM
Procedure: as §3, §4

Row | Molecule | percentage of cells cultured in media alone [1] [%] | # of colonies/10^3 cells (±SD) [1] [colonies/10^3 cells] | percentage of cells cultured in media alone [2] [%] | # of colonies/10^3 cells (±SD) [2] [colonies/10^3 cells] | percentage of cells cultured in media alone [3] [%] | # of colonies/10^3 cells (±SD) [3] [colonies/10^3 cells] | percentage of cells cultured in media alone [4] [%] | # of colonies/10^3 cells (±SD) [4] [colonies/10^3 cells] | percentage of cells cultured in media alone [5] [%] | # of colonies/10^3 cells (±SD) [5] [colonies/10^3 cells] | # of colonies/10^3 cells (±SD) [6] [colonies/10^3 cells] | percentage of cells cultured in media alone [7] | # of colonies/10^3 cells (±SD) [7] [colonies/10^3 cells] | β-PPT-I (molecules/μg total RNA) ([8]; BM stroma, 1 nM SP, 16 h) | other results
1 | COc1ccccc1CN[C@H]1C2CCN(CC2)[C@H]1C(c1ccccc1)c1ccccc1 [CP96,345] | 39 | 70 ± 5 | 39 | 63 ± 6 | 38 | 65 ± 5 | 40 | 60 ± 4 | 41 | 68 ± 8 | 201 ± 12 | (94%) | 198 ± 18 |  | 
2 | COc1ccccc1CN[C@H]1CCCN[C@H]1c1ccccc1 [CP-99,994] |  |  |  |  |  |  |  |  |  |  |  |  |  | <1 | reduction of SP-induced β-PPT-I ([8]; 10 nM CP-99,994, 1 nM SP): 7 fold; effect on induction of endogenous PPT-I by SCF ([8]; BM stroma, SCF + CP-99,994): bluned; luciferase activity in SCF-stimulated cells in the presence of the antagonist ([9]; 10 nM CP-99,994, SCF-stimulated transfected stroma): significantly reduced; luciferase activity, antagonist alone compared to transfectants with vector alone ([9]; antagonist alone): did not affect
3 | CC(=O)NC1(c2ccccc2)CCN(CC[C@H](CN(C)C(=O)c2ccccc2)c2ccc(Cl)c(Cl)c2)CC1 [SR48968] | 36 | 65 ± 8 | 38 | 60 ± 5 | 38 | 64 ± 4 | 43 | 65 ± 7 | 36 | 60 ± 10 | 210 ± 11 | 95% | 200 ± 9 |  | percentage of cells cultured in media alone [6]: 105%
4 | substance P (RPKPQQFFGLM) [SP, major PPT-I peptide, preferred ligand for NK-1 (Sigma)] |  |  |  |  |  |  |  |  |  |  |  |  |  | 284 ± 12 | 
5 | IL-1a: cytokine IL-1α obtained from Hoffman LaRoche (protein, UniProt P01583 113-271, looked up) Interleukin-1 alpha: SAPFSFLSNVKYNFMRIIKYEFILNDALNQSIIRANDQYLTAAALHNLDEAVKFDMGAYKSSKDDAKITVILRISKTQLYVTAQDEDQPVLLKEMPEIPKTITGSETNLLFFWETHGTKNYFTSVAHPNLFIATKQDYWVCLAGGPPSITDFQILENQA |  |  |  |  |  |  |  |  |  |  |  |  |  |  | β-PPT-I mRNA ([8]; BM stroma, 8 ng/ml SCF or 2.5 ng/ml IL-1a, 16 h, serum-free α-MEM): 4849 ± 121 Molecules/μg total RNA; molecules of β-PPT-I/μg poly A ([8]; poly A RNA from stroma stimulated with 25 ng/ml rhIL-1α or 10 ng/ml SCF for 24 h, n=6): 250,100±980 molecules of β-PPT-I/μg poly A; NK-1 mRNA [10]: 8106 ± 91 Molecules/μg total RNA; NK-2 mRNA [11]: 968 ± 26 Molecules/μg total RNA; increase in luciferase activities compared to unstimulated cells ([9]; pGL3-Upstream/N0 wild type, optimal SCF or IL-1a, 10 h): 3 fold; induction of luciferase in cells transfected with the double mutants ([9]; pGL3-Upstream/N0 with mutant CRE and CRE-like): no significant induction
